Experimental data taken from ChEMBL document CHEMBL4425144, “Discovery and Structural Optimization of N5-Substituted 6,7-Dioxo-6,7-dihydropteridines as Potent and Selective Epidermal Growth Factor Receptor (EGFR) Inhibitors against L858R/T790M Resistance Mutation” (J Med Chem, 2016).
Values after ≈ are worked out from the molar mass of the structure shown. Active and inactive are the calls of the source. No cut-off for these calls is given here.

How the values were obtained:
[1] = target: Epidermal growth factor receptor (Homo sapiens, UniProt P00533, L858R/T790M); assay: Inhibition of EGFR kinase domain L858R/T790M mutant (unknown origin) expressed using baculovirus expression system incubated for 1 hr using Poly(Glu,Tyr) 4:1 by ELISA method
Epidermal growth factor receptor (Homo sapiens, UniProt P00533, L858R/T790M), sequence (P00533 25-1210 T790M/L858R limits assumed): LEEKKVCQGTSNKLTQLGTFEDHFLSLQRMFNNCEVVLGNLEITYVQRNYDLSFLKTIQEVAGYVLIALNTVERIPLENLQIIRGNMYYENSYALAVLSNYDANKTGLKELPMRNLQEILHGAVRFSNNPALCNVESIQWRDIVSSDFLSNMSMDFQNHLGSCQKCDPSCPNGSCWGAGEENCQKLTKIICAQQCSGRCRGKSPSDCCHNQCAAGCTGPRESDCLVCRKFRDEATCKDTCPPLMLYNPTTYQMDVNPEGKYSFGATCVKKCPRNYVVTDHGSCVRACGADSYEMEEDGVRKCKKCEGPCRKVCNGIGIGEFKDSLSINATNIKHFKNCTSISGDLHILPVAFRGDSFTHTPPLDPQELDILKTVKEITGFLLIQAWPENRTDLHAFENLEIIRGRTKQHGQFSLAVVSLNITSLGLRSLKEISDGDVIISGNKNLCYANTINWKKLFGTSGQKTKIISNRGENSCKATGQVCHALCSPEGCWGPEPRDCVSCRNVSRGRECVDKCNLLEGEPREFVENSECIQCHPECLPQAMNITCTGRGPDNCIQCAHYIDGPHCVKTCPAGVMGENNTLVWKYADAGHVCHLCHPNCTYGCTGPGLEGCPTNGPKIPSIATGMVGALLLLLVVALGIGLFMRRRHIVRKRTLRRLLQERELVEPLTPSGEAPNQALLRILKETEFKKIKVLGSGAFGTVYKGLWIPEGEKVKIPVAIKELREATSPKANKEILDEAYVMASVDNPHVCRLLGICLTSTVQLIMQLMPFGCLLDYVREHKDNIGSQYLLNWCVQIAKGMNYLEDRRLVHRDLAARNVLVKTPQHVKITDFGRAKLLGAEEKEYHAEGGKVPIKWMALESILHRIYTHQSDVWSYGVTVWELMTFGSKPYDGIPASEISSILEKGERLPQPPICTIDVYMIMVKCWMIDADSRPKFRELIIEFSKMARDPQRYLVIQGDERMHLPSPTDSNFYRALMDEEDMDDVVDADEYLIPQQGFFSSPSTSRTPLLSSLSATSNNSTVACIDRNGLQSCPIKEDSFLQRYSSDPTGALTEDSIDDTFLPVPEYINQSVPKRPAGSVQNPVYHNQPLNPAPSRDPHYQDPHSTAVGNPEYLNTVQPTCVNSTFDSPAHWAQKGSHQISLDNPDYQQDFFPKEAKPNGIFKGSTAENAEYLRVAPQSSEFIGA

[2] = tested on: NCI-H1975; assay: Antiproliferative activity against human NCI-H1975 cells incubated for 72 hrs by SRB assay; type: functional, cell-based; conditions: NCI-H1975, 72 h
[3] = Dissociation constant, pKa of the compound by Sirius T3 based assay; type: physicochemical
[4] = Thermodynamic solubility of the compound in 0.1M PBS buffer at pH 7.4 by UV-visible spectrophotometry; type: physicochemical; conditions: read-out: Therm_solubility
[5] = target: Calcium/calmodulin-dependent protein kinase type 1 (Homo sapiens) (UniProt Q14012); assay: Inhibition of human CAMK1 expressed in bacterial system assessed as remaining enzyme activity at 1000 nM relative to untreated control
Calcium/calmodulin-dependent protein kinase type 1 (Homo sapiens), sequence (Q14012 whole entry, looked up): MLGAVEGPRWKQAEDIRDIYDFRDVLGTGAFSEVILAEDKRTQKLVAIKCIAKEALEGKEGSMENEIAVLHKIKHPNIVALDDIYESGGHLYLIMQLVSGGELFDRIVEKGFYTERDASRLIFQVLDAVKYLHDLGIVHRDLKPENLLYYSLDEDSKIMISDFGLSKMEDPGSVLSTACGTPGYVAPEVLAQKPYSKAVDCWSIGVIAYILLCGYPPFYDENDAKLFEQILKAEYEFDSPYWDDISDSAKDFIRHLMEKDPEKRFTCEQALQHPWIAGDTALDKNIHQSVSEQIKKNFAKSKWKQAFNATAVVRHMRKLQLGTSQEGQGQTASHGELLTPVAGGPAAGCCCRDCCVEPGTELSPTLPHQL

[6] = target: T1, Cyclin-G-associated kinase (Homo sapiens) (UniProt O14976); assay: Inhibition of human GAK expressed in bacterial system assessed as remaining enzyme activity at 1000 nM relative to untreated control
T1 sequence (whole entry): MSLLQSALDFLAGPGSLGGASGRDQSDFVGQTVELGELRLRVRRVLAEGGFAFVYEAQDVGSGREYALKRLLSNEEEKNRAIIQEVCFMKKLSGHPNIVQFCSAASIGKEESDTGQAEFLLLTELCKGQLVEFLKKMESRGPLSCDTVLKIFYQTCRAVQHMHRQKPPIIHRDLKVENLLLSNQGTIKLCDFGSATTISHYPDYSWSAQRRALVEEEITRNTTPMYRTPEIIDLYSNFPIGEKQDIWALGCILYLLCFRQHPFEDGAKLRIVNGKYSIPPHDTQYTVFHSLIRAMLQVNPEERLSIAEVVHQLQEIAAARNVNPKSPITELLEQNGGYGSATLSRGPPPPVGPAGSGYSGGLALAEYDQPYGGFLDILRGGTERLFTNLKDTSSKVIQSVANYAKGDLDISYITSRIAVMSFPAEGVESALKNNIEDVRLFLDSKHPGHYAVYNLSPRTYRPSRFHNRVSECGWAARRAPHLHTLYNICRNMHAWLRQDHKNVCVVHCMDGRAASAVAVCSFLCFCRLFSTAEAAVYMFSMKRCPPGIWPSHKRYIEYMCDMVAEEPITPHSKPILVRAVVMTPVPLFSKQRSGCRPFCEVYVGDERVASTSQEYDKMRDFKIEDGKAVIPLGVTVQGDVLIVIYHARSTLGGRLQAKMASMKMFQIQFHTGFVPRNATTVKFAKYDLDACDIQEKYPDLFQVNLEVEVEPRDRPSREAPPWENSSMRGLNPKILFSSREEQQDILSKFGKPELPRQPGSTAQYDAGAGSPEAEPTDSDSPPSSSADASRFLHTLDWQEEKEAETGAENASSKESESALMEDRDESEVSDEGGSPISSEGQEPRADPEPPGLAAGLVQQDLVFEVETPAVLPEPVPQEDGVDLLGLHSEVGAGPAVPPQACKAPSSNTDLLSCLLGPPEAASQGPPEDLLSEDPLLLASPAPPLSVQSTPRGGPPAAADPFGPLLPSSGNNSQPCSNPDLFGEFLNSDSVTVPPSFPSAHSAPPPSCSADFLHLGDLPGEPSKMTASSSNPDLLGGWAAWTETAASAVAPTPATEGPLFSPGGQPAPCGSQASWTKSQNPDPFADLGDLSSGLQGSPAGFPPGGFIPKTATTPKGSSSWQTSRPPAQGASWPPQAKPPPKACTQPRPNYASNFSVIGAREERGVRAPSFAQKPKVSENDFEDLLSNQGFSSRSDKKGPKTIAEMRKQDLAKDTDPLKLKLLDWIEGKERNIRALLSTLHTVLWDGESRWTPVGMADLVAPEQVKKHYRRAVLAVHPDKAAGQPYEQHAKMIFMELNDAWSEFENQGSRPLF

[7] = target: T2, Tyrosine-protein kinase TXK (Homo sapiens) (UniProt P42681); assay: Inhibition of human TXK expressed in bacterial system assessed as remaining enzyme activity at 1000 nM relative to untreated control
T2 sequence (whole entry): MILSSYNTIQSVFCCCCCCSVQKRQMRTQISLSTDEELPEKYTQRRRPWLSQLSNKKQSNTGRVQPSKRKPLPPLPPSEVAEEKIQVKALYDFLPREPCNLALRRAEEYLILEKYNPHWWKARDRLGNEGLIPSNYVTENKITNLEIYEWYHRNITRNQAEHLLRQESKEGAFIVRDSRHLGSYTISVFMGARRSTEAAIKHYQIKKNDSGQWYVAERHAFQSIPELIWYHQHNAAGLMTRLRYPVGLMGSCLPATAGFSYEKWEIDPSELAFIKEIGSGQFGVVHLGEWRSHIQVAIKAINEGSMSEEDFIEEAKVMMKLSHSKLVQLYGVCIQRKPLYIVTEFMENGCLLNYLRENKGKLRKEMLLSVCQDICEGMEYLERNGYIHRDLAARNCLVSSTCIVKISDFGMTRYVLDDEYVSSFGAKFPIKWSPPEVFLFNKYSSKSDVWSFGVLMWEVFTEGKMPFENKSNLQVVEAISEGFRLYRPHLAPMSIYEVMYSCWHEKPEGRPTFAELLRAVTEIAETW

[8] = target: Epidermal growth factor receptor (Homo sapiens, UniProt P00533); assay: Inhibition of EGF-induced EGFR kinase domain phosphorylation in human NCI-H1975 cells at 1000 nM pre-incubated for 2 hrs followed by stimulation with EGF for 15 mins by Western blot method; type: cell-based
Epidermal growth factor receptor (Homo sapiens, UniProt P00533), sequence (P00533 whole entry, the tested form may be a part): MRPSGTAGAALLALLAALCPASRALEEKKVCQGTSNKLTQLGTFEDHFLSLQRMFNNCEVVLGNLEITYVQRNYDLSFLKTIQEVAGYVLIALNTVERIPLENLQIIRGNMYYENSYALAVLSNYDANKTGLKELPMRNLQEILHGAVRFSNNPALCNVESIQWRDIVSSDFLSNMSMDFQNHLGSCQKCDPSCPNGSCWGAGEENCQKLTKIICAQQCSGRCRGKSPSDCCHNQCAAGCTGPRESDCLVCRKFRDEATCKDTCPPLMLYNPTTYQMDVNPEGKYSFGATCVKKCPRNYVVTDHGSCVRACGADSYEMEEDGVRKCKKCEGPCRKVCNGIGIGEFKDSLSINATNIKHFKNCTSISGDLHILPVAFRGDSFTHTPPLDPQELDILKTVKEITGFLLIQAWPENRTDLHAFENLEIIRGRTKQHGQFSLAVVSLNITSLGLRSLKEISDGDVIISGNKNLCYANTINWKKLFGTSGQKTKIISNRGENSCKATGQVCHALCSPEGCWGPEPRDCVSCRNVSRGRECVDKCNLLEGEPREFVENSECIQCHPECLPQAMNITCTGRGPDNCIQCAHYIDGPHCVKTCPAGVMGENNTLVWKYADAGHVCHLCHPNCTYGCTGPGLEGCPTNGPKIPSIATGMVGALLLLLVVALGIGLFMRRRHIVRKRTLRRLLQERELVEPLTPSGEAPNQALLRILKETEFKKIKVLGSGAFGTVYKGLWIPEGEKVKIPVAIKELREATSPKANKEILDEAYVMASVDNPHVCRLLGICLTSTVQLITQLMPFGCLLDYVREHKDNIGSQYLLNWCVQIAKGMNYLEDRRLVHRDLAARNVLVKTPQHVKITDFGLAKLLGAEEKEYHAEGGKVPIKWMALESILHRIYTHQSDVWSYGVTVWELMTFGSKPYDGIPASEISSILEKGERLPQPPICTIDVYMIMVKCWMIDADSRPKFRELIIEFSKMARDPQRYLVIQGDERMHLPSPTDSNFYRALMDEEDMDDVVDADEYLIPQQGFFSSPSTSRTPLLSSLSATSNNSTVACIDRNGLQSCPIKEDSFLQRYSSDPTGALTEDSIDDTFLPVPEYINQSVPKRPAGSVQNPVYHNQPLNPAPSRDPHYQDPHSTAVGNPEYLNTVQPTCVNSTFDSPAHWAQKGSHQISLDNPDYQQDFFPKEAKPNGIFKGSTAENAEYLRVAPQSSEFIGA

[9] = Half life in mouse liver microsomes at 1 uM in presence of NADPH by LC-MS/MS method; type: ADME, Microsome
[10] = tested on: A-431; assay: Antitumor activity against human A431 cells xenografted in BALB/c mouse assessed as inhibition of tumor growth at 50 mg/kg, po qd for 14 consecutive days; type: functional; conditions: A-431, po, read-out: TGI
[11] = tested on: Mus musculus; assay: Inhibition of EGFR kinase domain L858R/T790M mutant phosphorylation in human NCI-H1975 cells xenografted BALB/c mouse at 50 mg/kg, po qd for 14 consecutive days by Western blot method; type: functional, organism-based
[12] = Half life in ICR mouse at 1 mg/kg, iv by LC-MS/MS method; type: ADME, organism-based; conditions: in vivo
[13] = Half life in ICR mouse at 10 mg/kg, po by LC-MS/MS method; type: ADME, organism-based; conditions: in vivo
[14] = Tmax in ICR mouse at 1 mg/kg, iv by LC-MS/MS method; type: ADME, organism-based; conditions: in vivo
[15] = AUC (0 to t) in ICR mouse at 1 mg/kg, iv by LC-MS/MS method; type: ADME, organism-based; conditions: in vivo
[16] = AUC (0 to infinity) in ICR mouse at 1 mg/kg, iv by LC-MS/MS method; type: ADME, organism-based; set-up: dose 1 mg/kg, route intravenous, time infinity; conditions: in vivo
[17] = Clearance in ICR mouse at 1 mg/kg, iv by LC-MS/MS method; type: ADME, organism-based; conditions: in vivo
[18] = Oral bioavailability in ICR mouse at 10 mg/kg by LC-MS/MS method; type: ADME, organism-based; conditions: in vivo

SMILES: C=CC(=O)Nc1cccc(-n2c(=O)c(=O)n(C(C)C)c3cnc(Nc4ccc(N5CCN(C)CC5)cc4OC)nc32)c1
- IC50 [1]: 0.3 nM
- IC50 [2]: 18 nM
- pKa [3]: 7.7
- solubility thermodynamic [4]: 41 µg/mL (≈ 71.8 µM)
- Activity [5]: < 1%
- Activity [6]: < 1%
- Activity [7]: < 1%
- inhibition [8]: inactive
- half-life at 1 µM [9]: 51 min
- inhibition in vivo at 50 mg/kg [10]: 50%
- inhibition [11]: Active
- half-life [12]: 48 min
- half-life [13]: 66 min
- Tmax [14]: 54 min
- AUC(0-t) [15]: 140 ng·h/mL
- AUC(0-inf) [16]: 143 ng·h/mL
- clearance [17]: 117 mL/min/kg
- bioavailability [18]: 48%
